Reference: PubChem BioAssay (NCI)
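Test compounds were applied to cells in 96-well plates for 48 hours at 5 doses. Abbreviation: GI50, concentration required for 50% inhibition of growth. TGI marks complete inhibition of growth.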

Assays:
Assay in all cases: NCI anticancer screen, dose series, 48 h
[1] = tested on: NCI-H460 lung
[2] = tested on: SF-268 CNS
[3] = tested on: SK-MEL-2 melanoma
[4] = tested on: HCT-116 colon
[5] = tested on: RPMI-8226 leukemia
[6] = tested on: UACC-257 melanoma
[7] = tested on: OVCAR-5 ovarian
[8] = tested on: SK-MEL-28 melanoma
[9] = tested on: MCF7 breast
[10] = tested on: UACC-62 melanoma
[11] = tested on: MDA-MB-435
[12] = tested on: SR leukemia
[13] = tested on: A549 NSCLC
[14] = tested on: EKVX NSCLC
[15] = tested on: DU-145 prostate
[16] = tested on: MALME-3M melanoma
[17] = tested on: COLO 205 colon
[18] = tested on: CAKI-1 renal
[19] = tested on: A498 renal
[20] = tested on: HCC-2998 colon
[21] = tested on: SN12C renal
[22] = tested on: HCT-15 colon
[23] = tested on: SW-620 colon
[24] = tested on: OVCAR-8 ovarian
[25] = tested on: LOX IMVI melanoma
[26] = tested on: U251 CNS
[27] = tested on: MDA-MB-231 breast
[28] = tested on: SK-MEL-5 melanoma
[29] = tested on: PC-3 prostate
[30] = tested on: RXF 393 renal
[31] = tested on: KM12 colon
[32] = tested on: NCI-H23 lung
[33] = tested on: NCI-H226 lung
[34] = tested on: BT-549 breast
[35] = tested on: T-47D breast
[36] = tested on: HT29 colon
[37] = tested on: SNB-19 CNS
[38] = tested on: SF-295 CNS
[39] = tested on: NCI/ADR-RES ovarian
[40] = tested on: HS 578T breast
[41] = tested on: HOP-92 NSCLC
[42] = tested on: IGROV1 ovarian
[43] = tested on: HL-60(TB) leukemia
[44] = tested on: TK-10 renal
[45] = tested on: ACHN renal
[46] = tested on: 786-0 renal
[47] = tested on: SF-539 CNS
[48] = tested on: HOP-62 NSCLC
[49] = tested on: M14 melanoma
[50] = tested on: MOLT-4 leukemia
[51] = tested on: OVCAR-3 ovarian
[52] = tested on: NCI-H522 lung
[53] = tested on: OVCAR-4 ovarian
[54] = tested on: K-562 leukemia
[55] = tested on: SNB-75 CNS
[56] = tested on: SK-OV-3 ovarian
[57] = tested on: UO-31 renal

`COc1ccc2oc(=O)cc(C3c4ccc([nH]4)C(c4cc(=O)oc5ccc(OC)cc45)c4ccc([nH]4)C(c4cc(=O)oc5ccc(OC)cc45)c4ccc([nH]4)C(c4cc(=O)oc5ccc(OC)cc45)c4ccc3[nH]4)c2c1` (centres undefined) showed a GI50 [1] of 3.11 µM, a TGI [1] of 10.4 µM and a GI50 [2] of 2890 nM. It also gave a TGI [2] of 11.2 µM, a GI50 [3] of 3.02 µM and a TGI [3] of 9.5 µM. The GI50 [4] was 570 nM, the TGI [4] was 1930 nM and the GI50 [5] was 432 nM. The TGI [5] was 2040 nM, the GI50 [6] was 2250 nM and the TGI [6] was 13.2 µM. It also gave a GI50 [7] of 2980 nM, a TGI [7] of 11.1 µM and a GI50 [8] of 2480 nM. For the same compound, the TGI [8] was 12.9 µM, the GI50 [9] was 364 nM and the TGI [9] was 2160 nM. It also gave a GI50 [10] of 2690 nM, a TGI [10] of 7.81 µM and a GI50 [11] of 1900 nM. For the same compound, the TGI [11] was 6.66 µM, the GI50 [12] was 371 nM and the TGI [12] was 1660 nM. The GI50 [13] was 4.23 µM, the TGI [13] was 14.3 µM and the GI50 [14] was 7.58 µM. It also gave a TGI [14] of 22.3 µM, a GI50 [15] of 2070 nM and a TGI [15] of 4.75 µM. For the same compound, the GI50 [16] was 1540 nM, the TGI [16] was 3.73 µM and the GI50 [17] was 1750 nM. The TGI [17] was 3.6 µM, the GI50 [18] was 2160 nM and the TGI [18] was 6.77 µM. For the same compound, the GI50 [19] was 4.09 µM, the TGI [19] was 12.7 µM and the GI50 [20] was 2170 nM. The TGI [20] was 4.06 µM, the GI50 [21] was 3.12 µM and the TGI [21] was 12.7 µM. For the same compound, the GI50 [22] was 399 nM, the TGI [22] was 1530 nM and the GI50 [23] was 389 nM. The TGI [23] was 1690 nM, the GI50 [24] was 619 nM and the TGI [24] was 2780 nM. For the same compound, the GI50 [25] was 814 nM, the TGI [25] was 2430 nM and the GI50 [26] was 4 µM. It also gave a TGI [26] of 13.9 µM, a GI50 [27] of 2150 nM and a TGI [27] of 9.04 µM. The GI50 [28] was 2210 nM, the TGI [28] was 9.07 µM and the GI50 [29] was 2210 nM. It also gave a TGI [29] of 6.76 µM, a GI50 [30] of 318 nM and a TGI [30] of 950 nM. The GI50 [31] was 2910 nM, the TGI [31] was 10.8 µM and the GI50 [32] was 2370 nM. It also gave a TGI [32] of 6.42 µM, a GI50 [33] of 1360 nM and a TGI [33] of 4.63 µM. For the same compound, the GI50 [34] was 2020 nM, the TGI [34] was 5.36 µM and the GI50 [35] was 475 nM. It also gave a TGI [35] of 3.69 µM, a GI50 [36] of 2280 nM and a TGI [36] of 5.44 µM. For the same compound, the GI50 [37] was 5.48 µM, the TGI [37] was 18.3 µM and the GI50 [38] was 2820 nM. It also gave a TGI [38] of 10.6 µM, a GI50 [39] of 594 nM and a TGI [39] of 24.8 µM. The GI50 [40] was 2800 nM, the TGI [40] was 9.43 µM and the GI50 [41] was 2050 nM. It also gave a TGI [41] of 6.5 µM, a GI50 [42] of 2440 nM and a TGI [42] of 10.8 µM. It also gave a GI50 [43] of 357 nM, a TGI [43] of 976 nM and a GI50 [44] of 1580 nM. For the same compound, the TGI [44] was 2950 nM, the GI50 [45] was 2120 nM and the TGI [45] was 6.71 µM. For the same compound, the GI50 [46] was 1000 nM, the TGI [46] was 2200 nM and the GI50 [47] was 1700 nM. It also gave a TGI [47] of 3.91 µM, a GI50 [48] of 2730 nM and a TGI [48] of 9.56 µM. For the same compound, the GI50 [49] was 1240 nM, the TGI [49] was 4.6 µM and the GI50 [50] was 414 nM. For the same compound, the TGI [50] was 4.24 µM, the GI50 [51] was 230 nM and the TGI [51] was 611 nM. For the same compound, the GI50 [52] was 1650 nM, the TGI [52] was 3.16 µM and the GI50 [53] was 1260 nM. It also gave a TGI [53] of 2780 nM, a GI50 [54] of 413 nM and a TGI [54] of 2030 nM. The GI50 [55] was 2710 nM, the TGI [55] was 14.8 µM and the GI50 [56] was 2450 nM. It also gave a TGI [56] of 7.33 µM, a GI50 [57] of 1220 nM and a TGI [57] of 3.74 µM.
